Source: patent publication US10155802B2, “Locally-active anticoagulants and anti-inflammatory agents” (priority 2011, dated 2018)
No end group written: not given here.

What was measured:
[1] = system: FeCl3-induced arterial thrombosis (carotid artery); experiment: FeCl3-induced arterial model of thrombosis in rats (time to occlusion); type: in vivo; details: rat, single-bolus injection
Experimental: Male Sprague-Dawley rats (250-310 g; Charles River Laboratories, St-Constant, QC, Canada) were acclimated for at least 3 days prior to the start of the study. Animals were housed in microisolator cages and were kept on a 12-hr light/dark cycle with constant temperature and humidity. Food and water were provided ad libitum. Various anti-thrombotic agents and peptides of this invention were dissolved in saline (0.9% sodium chloride) prior to use.
The FeCl3-induced arterial model of thrombosis in rats was also generated as described by Wang and Xu (Wang 2005) with some modifications (Couture 2011). Briefly, rats were anesthetized with a 2.5% isoflurane/oxygen mixture and placed on a heat source (35-37° C.). An incision was made over the right carotid artery, and a segment of the artery was exposed via blunt dissection. A Doppler flow probe (Model MA1PRB, Transonic System Inc., Ithaca, N.Y., USA) connected to a perivascular flow module (TS420, Transonic System Inc., Ithaca, N.Y., USA) was then attached to the carotid artery to monitor blood flow. Data were collected and analyzed using the MP100 Biopac™ Systems (Biopac Systems, Santa Barbara, Calif., USA), and the AcgKnowledge™ software (Biopac Systems, Santa Barbara, Calif., USA), respectively. Baseline blood flow was recorded for a minimum of 15 minutes until readings stabilized. Aquasonic 100 gel (Parker Laboratories, Inc., Fairfield, N.J., USA) was added to help conductivity and any fluid accumulating at the site of surgery was removed during data sampling without touching the probe. […] One minute after drug administration, a piece of filter paper (Gel Blot Paper, GB003, Whatman, Piscataway, N.J., USA; 7 mm diameter) saturated with 20% FeCl3 (EMD Chemicals Inc., Gibbstown, N.J., USA) was placed on the exposed surface of the carotid artery and incubated for 3.5 minutes. During the application of FeCl3, the neck region was covered with aluminum foil. At the end of the incubation period, the filter paper was removed and the exposed carotid was covered with a saline-soaked gauze. Time to occlusion was defined as the time from the application of FeCl3 until blood flow decreased to zero. […] Preparing and processing each animal took approximately 1 hr and 7 animals were treated each day. Control animals were always included when the other treatments were being administered. For this reason, the number of animals in the control group is higher than that of the treated-groups.
Statistical analysis was conducted using GraphPad™ Prism (GraphPad Software Inc., San Diego Calif., USA). Data were analyzed using one-way ANOVA with post-hoc Bonferroni correction for multiple comparisons. The relationship between thrombus weight and thrombus volume was determined by linear regression. […]

[2] = system: human coagulation proteome; experiment: Synthetic coagulation proteome assay (thrombin generation); type: biochemical; details: 37° C.
Experimental: This assay is carried out using an established protocol as described previously (Brummel-Ziedens 2008). Briefly, a pro-cofactor solution containing re-lipidated tissue factor (10 pM; molar ratio PCPS:TF=5000) was incubated with 4 μM PCPS in HBS (20 mM HEPES and 150 mM NaCl at pH 7.4) and 2 mM CaCl2 for 8 min at 37° C. Factor V (40 nM) and Factor VIII (1.4 nM) were then added to the mixture prior to initiation of the reaction to activate the protease zymogens in the blood coagulation cascade. The activation reaction was initiated by addition of the pro-cofactor solution to a zymogen solution containing prothrombin (2.8 μM), Factor VII (20 nM), Factor Vila (0.2 nM), FX (340 nM), Factor IX (180 nM), Factor XI (60 nM), TFPI (5 nM), antithrombin III (6.8 μM) […]
At selected time points after initiation of the reaction, 10 μL aliquots were withdrawn from the reaction mixture and quenched in 20 mM EDTA in HBS (pH 7.4) containing 0.2 mM Spectrozyme™ TH and assayed immediately for the proteolytic activity of thrombin. The hydrolysis of Spectrozyme™ TH was monitored by the change in absorbance at 405 nm using a SpectraMax™ plate reader (Molecular Devices Corp., Menlo Park, Calif., USA). Concentration of thrombin generated by the reaction was calculated from a standard curve prepared by serial dilutions of known concentrations of α-thrombin using the fibrinogen clotting assay (DiMaio 1990). Fibrinogen solution was freshly prepared by dissolving about 0.5% (w/v) fibrinogen in 50 mM Tris-HCl, 100 mM NaCl, 0.1% PEG-8000, pH 7.6 and filtering the resulting solution through a hydrophilic membrane of 0.45 μm polyvinylidene fluoride (PVDF) with low protein binding. The concentration of fibrinogen after filtration was determined by using the extinction coefficient of 15.0 for 1% fibrinogen at 280 nm. […] Thrombin-induced clotting of fibrinogen was followed at 25° C. by measuring the optical absorbance at 420 nm. The clotting time was obtained from extrapolation of the slope at the point of inflection to the zero absorbance baseline. […]

pooled human plasma [3] = experiment: Activated partial thromboplastin time (APTT) clotting assay; type: biochemical; details: 37° C.; concentration for 50% of maximum delay in clotting time; read-out: MTC50 (APTT)
Experimental: (§1) Prothrombin (clotting) time (PT) or activated partial thromboplastin (clotting) time (APTT) assays were carried out at certain concentrations of the thrombin inhibitors of the present invention using pooled human plasma with addition of thromboplastin or activated partial thromboplastin to initiate clotting. The assays employed kits from Biopool International (Ventura, Calif., USA) or from Pacific Haemostasis (Middletown, Va., USA) using the procedures supplied by the manufacturer. Briefly, the stock solution of an inhibitor (with the concentration determined using UV-based OD determination, see Gill 1989) is diluted in a buffer of 20 mM HEPES and 150 mM NaCl at pH 7.4 (HBS) to a final volume of 50 μL, to which is added the reconstituted normal plasma (Product #CMS-176172 from Fisher Scientific) in an equal volume. This solution mixture is equilibrated at 37° C. for 2 minutes before 50 μL of the APTT-10XL solution (CMS-022927) is introduced forcibly to ensure proper mixing. This new mixture was incubated at 37° C. for another 5 minutes, which is followed by the addition of 50 μL of 0.02 M […] (Fisher Scientific CMS-022925) pre-warmed at 37° C. For the prothrombin time (PT) assay, an inhibitor is diluted in HBS to a final volume of 25 μL, to which is added the reconstituted control plasma (Fisher Scientific CMS-176172) in an equal volume. This solution mixture is equilibrated at 37° C. for 5 minutes before addition of 100 μL of the thromboplastin solution (CMS-176099) pre-warmed at 37° C. For APTT assays, inhibitory activities of the peptides are expressed as concentrations needed to achieve 50% of the maximum delay in clotting time (MCT50) as compared to the absence of thrombin inhibitors (Maraganore 1989). For PT assays, inhibitory activities are measured as the concentrations of the peptides that prolong the clotting time by 50% (IC50) of that of the normal control plasma (Maraganore 1990). PT and APTT assays were also carried out using slightly modified experimental procedures. Thus, 50 μL of a control plasma (Pacific Hemostasis) solution was added to 100 μL HBS (20 mM HEPES and 150 mM NaCl at pH 7.4) containing varied concentrations of the peptides of this invention. After incubation at 37° C. for 5 min, the mixture was added to 50 μL of the thromboplastin or activated partial thromboplastin reagent. Clotting of the plasma was monitored by change in absorbance at 420 nm using a SpectraMax™ plate reader.

pooled human plasma [4] = experiment: Prothrombin time (PT, thromboplastin) clotting assay; type: biochemical; details: for IC50: 37° C., concentration that prolongs clotting time by 50%
Experimental: as §1

rat-tail collagen type I = target: T1, rat-tail collagen type I (Rattus norvegicus, UniProt P02454+P02466); experiment: Peptide-collagen binding by reduction of collagen fibril alignment (deuterium coupling constant); details: collagen gelation under magnetic field in presence of peptide
T1 construct: purchased BD Bioscience; host or cells: rat tail (tissue-derived)
T1 sequence (P02454 152-1207): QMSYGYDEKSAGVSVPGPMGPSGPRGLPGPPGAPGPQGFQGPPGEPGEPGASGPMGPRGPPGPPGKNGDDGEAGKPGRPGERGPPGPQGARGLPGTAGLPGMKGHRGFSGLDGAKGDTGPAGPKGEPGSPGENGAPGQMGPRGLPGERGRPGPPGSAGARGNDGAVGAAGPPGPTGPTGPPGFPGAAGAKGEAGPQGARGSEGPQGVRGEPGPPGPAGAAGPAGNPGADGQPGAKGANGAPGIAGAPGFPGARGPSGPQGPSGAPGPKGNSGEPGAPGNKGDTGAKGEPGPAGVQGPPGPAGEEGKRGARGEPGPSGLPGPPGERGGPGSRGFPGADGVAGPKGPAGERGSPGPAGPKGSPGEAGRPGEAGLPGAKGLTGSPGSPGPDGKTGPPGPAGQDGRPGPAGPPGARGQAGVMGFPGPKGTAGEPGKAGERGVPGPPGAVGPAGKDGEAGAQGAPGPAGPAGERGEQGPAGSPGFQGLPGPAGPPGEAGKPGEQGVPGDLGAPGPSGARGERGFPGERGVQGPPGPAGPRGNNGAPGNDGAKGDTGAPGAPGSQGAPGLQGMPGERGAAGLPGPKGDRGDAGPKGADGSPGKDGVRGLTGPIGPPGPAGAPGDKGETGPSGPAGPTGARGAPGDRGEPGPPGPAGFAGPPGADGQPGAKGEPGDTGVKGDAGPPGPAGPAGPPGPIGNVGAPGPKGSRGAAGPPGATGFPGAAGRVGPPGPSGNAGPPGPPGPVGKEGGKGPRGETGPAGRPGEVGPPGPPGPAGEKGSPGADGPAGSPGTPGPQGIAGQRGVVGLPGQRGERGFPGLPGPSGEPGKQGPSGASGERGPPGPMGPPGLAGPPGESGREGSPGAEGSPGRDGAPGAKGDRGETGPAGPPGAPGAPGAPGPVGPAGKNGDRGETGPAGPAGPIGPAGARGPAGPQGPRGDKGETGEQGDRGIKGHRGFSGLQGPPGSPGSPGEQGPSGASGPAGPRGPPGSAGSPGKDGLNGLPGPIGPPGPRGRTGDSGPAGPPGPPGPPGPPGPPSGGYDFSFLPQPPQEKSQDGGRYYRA
T1 sequence (P02466 86-1125): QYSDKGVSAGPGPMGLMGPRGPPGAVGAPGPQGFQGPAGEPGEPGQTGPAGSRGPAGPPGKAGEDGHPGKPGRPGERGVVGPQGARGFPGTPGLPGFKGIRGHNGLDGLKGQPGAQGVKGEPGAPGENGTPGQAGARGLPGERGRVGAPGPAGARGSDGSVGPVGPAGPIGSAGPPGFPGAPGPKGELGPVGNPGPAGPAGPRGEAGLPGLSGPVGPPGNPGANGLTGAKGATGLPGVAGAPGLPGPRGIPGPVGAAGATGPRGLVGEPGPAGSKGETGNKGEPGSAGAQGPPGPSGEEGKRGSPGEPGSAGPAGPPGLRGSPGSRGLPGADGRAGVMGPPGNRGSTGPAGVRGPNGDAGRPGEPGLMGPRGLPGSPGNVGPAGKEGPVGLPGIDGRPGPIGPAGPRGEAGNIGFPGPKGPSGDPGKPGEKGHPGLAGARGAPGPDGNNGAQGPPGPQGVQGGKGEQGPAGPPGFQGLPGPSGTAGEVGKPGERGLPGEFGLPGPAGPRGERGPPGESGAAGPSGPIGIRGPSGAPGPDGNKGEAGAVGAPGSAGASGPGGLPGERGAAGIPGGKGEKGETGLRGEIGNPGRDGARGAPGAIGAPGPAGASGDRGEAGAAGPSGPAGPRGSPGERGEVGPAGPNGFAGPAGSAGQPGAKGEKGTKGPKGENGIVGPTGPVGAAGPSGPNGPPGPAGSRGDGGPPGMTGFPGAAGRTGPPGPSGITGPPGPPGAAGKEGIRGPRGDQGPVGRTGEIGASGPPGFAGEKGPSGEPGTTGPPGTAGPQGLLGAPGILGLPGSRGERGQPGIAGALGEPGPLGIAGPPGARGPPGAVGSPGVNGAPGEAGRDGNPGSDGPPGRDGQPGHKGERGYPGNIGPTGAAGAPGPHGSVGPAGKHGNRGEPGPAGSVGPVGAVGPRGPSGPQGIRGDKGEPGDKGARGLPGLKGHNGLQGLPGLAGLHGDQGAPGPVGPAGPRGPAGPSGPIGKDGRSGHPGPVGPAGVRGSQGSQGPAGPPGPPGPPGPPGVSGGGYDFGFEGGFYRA
Description: High-resolution proton NMR spectroscopy is used to illustrate the behavior of the linker peptides […] (SEQ ID NO: 2 or gb1), […] (SEQ ID NO: 3 or trpzip6), […] (SEQ ID NO: 4 or trpzip5) and […] (SEQ ID NO: 5 or trpzip4) in aqueous solutions. The peptides were synthesized using standard Fmoc chemistry and purified by reverse-phase HPLC. Their identity was confirmed by mass-spectroscopy and NMR spectroscopy. For NMR studies, a volume of (400-X) μL of a peptide dissolved in pure water was mixed with 50 μL of a 10×PBS (phosphate-buffered saline) supplemented by sodium phosphate to a final concentration of 50 mM and with 50 μL of deuterated water (D2O) to form the reference sample (where X=0) and with a certain volume (X μL) of rat-tail collagen type I (at 3.6 to 4 mg/ml in 0.02 N acetic acid from BD Bioscience), (where X is adjusted to achieve the desired final concentration of collagen), with 50 μL of the 10× modified PBS and with 50 μL of deuterated water (D2O) to form the peptide-collagen complex. The pH value of the reference peptide samples was adjusted to match the pH of the final peptide-collagen complex in order to facilitate NMR spectral comparison.
The peptide-collagen solutions were subjected to gelation under magnetic field guidance (see Example 7) followed by the measurement of fibril alignment (Ma 2008) as a semi-quantitative indication of peptide-collagen binding. […]

Row | Compound | reduction of arterial occlusion [1] | IC50 (pooled human plasma [4]) | further results
1 | CC1CNc2c(cccc2S(=O)(=O)N[C@@H](CCCNC(=N)N)C(=O)N2CC[C@@H](C)C[C@@H]2C(=O)O)C1 (some centres unmarked) [Argatroban, reference compound] | consistently better efficacy |  | 
2 | CC[C@H](C)[C@H](N)C(=O)N[C@@H](CCCNC(=N)N)C(=O)N[C@@H](Cc1ccccc1)C(=O)N[C@H](C(=O)N[C@@H](CC(=O)O)C(=O)NCC(=O)N[C@@H](CCC(=O)O)C(=O)NCC(=O)N[C@H](C(=O)NCC(=O)N[C@@H](CO)C(=O)NCC(=O)N[C@@H](CO)C(=O)NCC(=O)N[C@@H](CO)C(=O)NCC(=O)N[C@@H](CO)C(=O)NCC(=O)N[C@@H](CC(=O)O)C(=O)N[C@@H](Cc1ccccc1)C(=O)N[C@@H](CCC(=O)O)C(=O)N[C@@H](CCC(=O)O)C(=O)N[C@H](C(=O)N1CCC[C@H]1C(=O)N[C@@H](CCC(=O)O)C(=O)N[C@@H](CCC(=O)O)C(=O)N[C@@H](Cc1ccc(O)cc1)C(=O)N[C@@H](CC(C)C)C(=O)N[C@@H](CCC(N)=O)C(=O)O)[C@@H](C)CC)[C@@H](C)O)[C@@H](C)O [MH2-GS] |  | 200 nM | delay of thrombin burst / onset of thrombin generation [2]: clear dose-dependency for the delay of thrombin burst; EC50 (pooled human plasma [3]): 900 nM; anticoagulant effect in PT versus APTT assays (pooled human plasma [4]; in words): more potent effect in delaying the prothrombin time as compared to APTT
3 | Bivalirudin [reference compound] | consistently better efficacy | 93 nM | 
4 | GEWTWDDATKTWTWTE (not fully specified (C-terminus)) [trpzip4] |  |  | reduction of deuterium coupling constant (degree of collagen fibril alignment) (rat-tail collagen type I): more than 1.0 Hz
